Source: US9023813B2 (Nutek Pharma Ltd., priority 2012, dated 2015)

Legend:
male Sprague Dawley rats = assay: Clinical observations of rats during administration of propofol analogs in the pharmacokinetics study
Method: (§1) Blood samples were to be taken pre-dose, during dose and post dose at designated intervals, with the blood quickly processed and stored at −70° C. until analysis.
(§2) Formulations were prepared on the morning of the dosing day and each was passed through a 0.22 μm filter prior to being administered to animals. A standard dose of 0.168 mmol/Kg per analog was administered to each of the rats. […] Analog stability in the formulations was verified by preparing each formulation and harvesting 200 μL aliquots at 0, 1, 2 and 8 hr while standing at room temperature. After harvesting, each sample was immediately frozen in dry ice until analysis; concentrations of test compounds in the samples were examined by HPLC-UV.
(§3) The animals were surgically prepared with indwelling cannula, double cannulation in carotid artery and jugular vein for i.v. infusion. The anesthetic pentobarbital was used during the surgery, and the animals were allowed to recover 3-5 days after surgery before the formulation was dosed. The dose formulation was administered intravenously via the jugular vein cannula. The 16.8 μmol/mL formulation was administered i.v. at a rate of 1 mL/Kg/min for 10 min.

[1] = Pharmacokinetics: plasma concentrations of prodrug and propofol after intravenous infusion (LC/MS/MS); conditions: for AUClast: to last detected concentration; for Mean Concentration of Propofol in Rat Plasma After Intravenous Administration: analyte = propofol released from the administered compound; for Pro-drug behaviour (release of propofol in vivo): rats, releasing the propofol in a matter of minutes after infusion
Method: as §1, §2, §3
Approximately 0.20 mL blood was collected at each designated time point from carotid artery via a catheter. A total of 12 plasma samples were taken from each animal: 1 pre-dose; 2 during the dose (5 into the 10 min infusion and one just prior termination of the 10 min infusion) and 9 post-infusion at 2, 5, 15, 30 min and 1, 2, 3, 4, and 6 hr post-dose. All blood samples were transferred into plastic microcentrifuge tubes containing 5 μL of K2-EDTA (0.5M) as anti-coagulant and placed on ice until processed for plasma. Blood samples were processed for plasma by centrifugation at approximately 5° C. Plasma samples were then stored in 1.5 mL tubes, quick frozen over dry ice and kept at −70±10° C. until LC/MSMS analysis.
For each, a minimum of 6 standard point curve runs in duplicates, and minimum of 5 standards were back calculated to within ±20% of their nominal concentrations. The LLOQ of each test article in plasma was established and 6 QC samples were included in assay runs of samples to ensure assay performance.
Data Analysis. Plasma concentration versus time data was analyzed by non-compartmental approaches using the WinNonlin software program (version 5.2, Pharsight, Mountain View, Calif.) and the pharmacokinetic parameters T½, CL, Vss, AUC(0-t), AUC(0-inf), MRT, and graphs of plasma concentration versus time calculated for each.

[2] = Solubility determination in D2O by 1H NMR with DSS internal standard
Method: Thus the soapy-like solutions obtained were diluted until opalescent and diluted further until the opalescence visually disappeared.

[3] = cited from earlier work
[4] = time post-10 min i.v. infusion, 0.168 mmol/Kg
[5] = analyte = administered compound, Time (h) 0
[6] = analyte = administered compound, Time (h) 0.083
[7] = analyte = administered compound, Time (h) 0.167
[8] = analyte = administered compound, Time (h) 0.2
[9] = analyte = administered compound, Time (h) 0.25
[10] = analyte = administered compound, Time (h) 0.417
[11] = analyte = administered compound, Time (h) 0.667
[12] = analyte = administered compound, Time (h) 1.166
[13] = analyte = administered compound, Time (h) 2.166
[14] = analyte = administered compound, Time (h) 3.166
[15] = analyte = administered compound, Time (h) 4.166
[16] = analyte = administered compound, Time (h) 6.166
[17] = analyte = administered compound
[18] = analyte = administered compound, extrapolated to infinity

With CC(C)c1cccc(C(C)C)c1OC(=O)OCCO[C@H]1O[C@H](CO)[C@@H](O)[C@H](O)[C@H]1O [Compound 32] the Rats recovered at (male Sprague Dawley rats; [4]) was “recovered at about 26 min”, the “Mean concentration of prodrug and propofol in rat plasma after intravenous infusion administration” value [1, 5] was “BQL” and the “Mean concentration of prodrug and propofol in rat plasma after intravenous infusion administration” value [1, 6] was 4.88 nM. The “Mean concentration of prodrug and propofol in rat plasma after intravenous infusion administration” value [1, 7] was 4.97 nM, the “Mean concentration of prodrug and propofol in rat plasma after intravenous infusion administration” value [1, 8] was 2.68 nM and the “Mean concentration of prodrug and propofol in rat plasma after intravenous infusion administration” value [1, 9] was “BQL”. The “Mean concentration of prodrug and propofol in rat plasma after intravenous infusion administration” value [1, 10] was “BQL”, the “Mean concentration of prodrug and propofol in rat plasma after intravenous infusion administration” value [1, 11] was “BQL” and the “Mean concentration of prodrug and propofol in rat plasma after intravenous infusion administration” value [1, 12] was “BQL”. For the same compound, the “Mean concentration of prodrug and propofol in rat plasma after intravenous infusion administration” value [1, 13] was “BQL”, the “Mean concentration of prodrug and propofol in rat plasma after intravenous infusion administration” value [1, 14] was “BQL” and the “Mean concentration of prodrug and propofol in rat plasma after intravenous infusion administration” value [1, 15] was “BQL”. For the same compound, the “Mean concentration of prodrug and propofol in rat plasma after intravenous infusion administration” value [1, 16] was “BQL”, the AUClast [1, 17] was 0.000657 µM·h and the “Mean Concentration of Propofol in Rat Plasma After Intravenous Administration” value (“Mean Concentration of Propofol” below) ([1]; Time (h) 0) was “BQL”. The “Pro-drug behaviour (release of propofol in vivo)” value [1] was “very efficient pro-drugs” and the Relative solubility [2] was 12.0.
With CC(C)c1cccc(C(C)C)c1OC(=O)OCCCO[C@H]1O[C@H](CO)[C@@H](O)[C@H](O)[C@H]1O [Compound 33] the Rats recovered at (male Sprague Dawley rats; [4]) was “recovered at about 30 min”, the “Mean concentration of prodrug and propofol in rat plasma after intravenous infusion administration” value [1, 5] was “BQL” and the “Mean concentration of prodrug and propofol in rat plasma after intravenous infusion administration” value [1, 6] was 16.5 nM. The “Mean concentration of prodrug and propofol in rat plasma after intravenous infusion administration” value [1, 7] was 23.1 nM, the “Mean concentration of prodrug and propofol in rat plasma after intravenous infusion administration” value [1, 8] was 9.59 nM and the “Mean concentration of prodrug and propofol in rat plasma after intravenous infusion administration” value [1, 9] was “BQL”. For the same compound, the “Mean concentration of prodrug and propofol in rat plasma after intravenous infusion administration” value [1, 10] was “BQL”, the “Mean concentration of prodrug and propofol in rat plasma after intravenous infusion administration” value [1, 11] was “BQL” and the “Mean concentration of prodrug and propofol in rat plasma after intravenous infusion administration” value [1, 12] was “BQL”. For the same compound, the “Mean concentration of prodrug and propofol in rat plasma after intravenous infusion administration” value [1, 13] was “BQL”, the “Mean concentration of prodrug and propofol in rat plasma after intravenous infusion administration” value [1, 14] was “BQL” and the “Mean concentration of prodrug and propofol in rat plasma after intravenous infusion administration” value [1, 15] was “BQL”. The “Mean concentration of prodrug and propofol in rat plasma after intravenous infusion administration” value [1, 16] was “BQL”, the AUClast [1, 17] was 0.00304 µM·h and the “Mean Concentration of Propofol” value ([1]; Time (h) 0) was “BQL”. For the same compound, the “Mean Concentration of Propofol” value ([1]; Time (h) 4.166) was “BQL”, the “Mean Concentration of Propofol” value ([1]; Time (h) 6.166) was “BQL” and the “Pro-drug behaviour (release of propofol in vivo)” value [1] was “very efficient pro-drugs”. For the same compound, the Relative solubility [2] was 5.2 (8.1)^4.
In the case of CC(C)c1cccc(C(C)C)c1O [Propofol, 2,6-diisopropylphenol, reference compound], the Rats soporous at (male Sprague Dawley rats; [4]) is reported as “Rats soporous at about 4 min and”, the Rats recovered at (male Sprague Dawley rats; time post-10 min infusion, 5% cremophor vehicle) is reported as “recovered at about 1.5 hr” and the “Mean concentration of prodrug and propofol in rat plasma after intravenous infusion administration” value [1, 6] is reported as 21795 nM. The “Mean concentration of prodrug and propofol in rat plasma after intravenous infusion administration” value [1, 7] was 31510 nM, the “Mean concentration of prodrug and propofol in rat plasma after intravenous infusion administration” value [1, 8] was 19613 nM and the “Mean concentration of prodrug and propofol in rat plasma after intravenous infusion administration” value [1, 9] was 13370 nM. For the same compound, the “Mean concentration of prodrug and propofol in rat plasma after intravenous infusion administration” value [1, 10] was 3827 nM, the “Mean concentration of prodrug and propofol in rat plasma after intravenous infusion administration” value [1, 11] was 3122 nM and the “Mean concentration of prodrug and propofol in rat plasma after intravenous infusion administration” value [1, 12] was 1642 nM. For the same compound, the “Mean concentration of prodrug and propofol in rat plasma after intravenous infusion administration” value [1, 13] was 841 nM, the “Mean concentration of prodrug and propofol in rat plasma after intravenous infusion administration” value [1, 14] was 332 nM and the “Mean concentration of prodrug and propofol in rat plasma after intravenous infusion administration” value [1, 15] was 259 nM. The “Mean concentration of prodrug and propofol in rat plasma after intravenous infusion administration” value [1, 16] was 230 nM, the AUCinf [1, 18] was 12.634 µM·h and the MRTinf [1, 18] was 3.48 h. The AUClast [1, 17] was 10.576 µM·h, the CLp ([1]; analyte = administered compound, total body clearance, dose/AUCinf) was 264.7 mL/min/kg and the Vdss ([1]; analyte = administered compound, volume of distribution) was 61.2 L/kg. For the same compound, the “Mean Concentration of Propofol” value ([1]; Time (h) 0) was “BQL”, the Onset ([3]; anesthetic onset) was < 30 s and the Duration of action ([3]; in vivo) was ~5 min. The “Pain on administration (share of uses)” value ([3]; standard lipid formulation) was 80%.
